Experimental data taken from PubChem BioAssay (NCI).
Several values for one entry are separate records, joined by “and”; a condition that tells them apart may be missing. Equal values may be shown once.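 Results reflect a 48-hour exposure of cells in 96-well plates to compound at five concentrations. Here, GI50 denotes the concentration required for 50% inhibition of growth. The concentration for full growth arrest is given as TGI.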

Each compound was assayed on SK-OV-3 ovarian (assay: NCI anticancer screen, dose series, 48 h).
CC1OC2CC(=O)OC2C2=C1C(=O)c1c(O)cccc1C2=O (stereo unspecified) showed a GI50 of 1.34 µM and a TGI of 2.67 µM.
With CCC[CH2][Sn]([CH2]CCC)([CH2]CCC)[O]C(=O)CC the GI50 was 0.143 µM and the TGI was 0.296 µM.
Work on C=C(C)[C@@]12OC3(/C=C/C=C/CCCCC)O[C@@H]1[C@@H]1[C@@H]4O[C@]4(CO)[C@@H](O)[C@]4(O)C(=O)C(C)=C[C@H]4[C@@]1(O3)[C@H](C)[C@H]2OC(=O)c1ccccc1 yielded a GI50 of 2.44 µM and a TGI of 4.9 µM.
Work on C/C(=C\CCc1ccoc1)CC/C=C(\C)CCCC1=CC(=O)OC1 yielded a GI50 of 12.6 µM and a TGI of 50.4 µM.
Compound C=CC1CC12C(=O)C1OC2(C)C2C(=O)c3cc4ccccc4cc3C(=O)C12 (stereo unspecified) has a GI50 of 48.1 µM and a TGI of over 100 µM.

These compounds were tested on HT29 colon (assay: NCI anticancer screen, dose series, 48 h).
With O=[n+]1c2c(n([O-])c3ccccc31)CCCCCCCCCC2 the TGI was over 100 µM.
For O=C(OCc1ccc2cccc(O)c2n1)N1CCN(C(=O)c2cc3cc(F)ccc3[nH]2)CC1, the GI50 was 1.14 µM and the TGI was 3.05 µM.
With OCCN1CN(CCO)CN(c2nc(N3CN(CCO)CN(CCO)C3)nc(N3CN(CCO)CN(CCO)C3)n2)C1 the TGI was 0.63 ng/mL.
Work on C=C(F)C(=O)N1CCN(c2nc(OC[C@@H]3CCCN3C)nc3c2CCN(c2cccc4cccc(Cl)c24)C3)C[C@@H]1CC#N yielded a GI50 of 0.699 µM and a TGI of 2.42 µM.
Cc1c2cccnc2c(C)c2c1c1cc(CO)ccc1n2C gave a GI50 of 1.92 µM and a TGI of 10.6 µM.
Work on CCCCN(CCCC)CC(C(=O)Nc1ccc([N+](=O)[O-])cc1[N+](=O)[O-])/C(C)=N\NC(=S)NN (stereo unspecified) yielded a TGI of over 100 µM.
Work on S=C(N/N=C/c1ccco1)NC12CC3CC(CC(C3)C1)C2 yielded a TGI of over 100 µM.
In the case of CS(=O)(=O)N/N=C/CN1C(=O)c2ccccc2C1=O, the TGI is reported as over 100 µM.
With Ic1ccc(Nc2nc3nonc3nc2Nc2ccc(I)cc2)cc1 the GI50 was 0.265 µM and the TGI was over 100 µM.
Work on CC(SC(C)C(=O)N/N=C/c1cccc(Cl)c1)C(=O)N/N=C\c1cccc(Cl)c1 (stereo unspecified) yielded a GI50 of 11.6 µM and a TGI of 32.1 µM.
CCOC(=O)/C=C/C(C(=O)/C=C/c1ccc(OC2CCCCO2)c(OC)c1)=C(O)\C=C\c1ccc(OC2CCCCO2)c(OC)c1 (stereo unspecified) showed a GI50 of 1.94 µM and a TGI of 4.51 µM.
O=C1c2ccccc2C2(Br)C(=O)c3ccccc3C12 (stereo unspecified) showed a TGI of over 100 µM.
CCN1CCN(c2ccc(Nc3cc(N(C)C(=O)Nc4c(Cl)c(OC)cc(OC)c4Cl)ncn3)cc2)CC1 was tested, and the GI50 was 1.55 µM and the TGI was 3.69 µM.
CCOC(=O)Oc1c(OC)cc(C(=O)NC2CCc3cc(OC)c(OC)c(OC)c3-c3ccc(SC)c(=O)cc32)cc1OC (stereo unspecified) showed a TGI of 0.489 µM.
With COC(=O)c1cc2c(cc1O)[C@@H](NC(C)=O)CCc1cc(OC)c(OC)c(OC)c1-2 the GI50 was 0.0206 µM and the TGI was 0.201 µM and 0.0554 µM.
CC(C)(C)OC(=O)NCC(=O)OCc1ccccc1 showed a TGI of over 100 µM.
CC(C)(C)[SiH]12(OC(C(F)(F)F)(C(F)(F)F)c3ccccc31)OC(C(F)(F)F)(C(F)(F)F)c1ccccc12 showed a TGI of 13.2 µM.
With CSc1nc2c(nc(C)c(=O)n2C2OCC(OC(C)=O)C(OC(C)=O)C2OC(C)=O)c(=O)[nH]1 (stereo unspecified) the TGI was over 100 µM.
For O=S(O)CCCCSSCC(O)C(O)CSSCCCCS(=O)O (stereo unspecified), the TGI was 24.4 µM and 27 µM.
In the case of O=C1OC(c2ccccc2)=N/C1=C/C=C/c1ccco1, the TGI is reported as over 100 µM.
In the case of CC1OC2CC(=O)OC2C2=C1C(=O)c1c(O)cccc1C2=O (stereo unspecified), the GI50 is reported as 0.0312 µM and the TGI is reported as 0.113 µM.
CCC[CH2][Sn]([CH2]CCC)([CH2]CCC)[O]C(=O)CC was tested, and the GI50 was 0.13 µM and the TGI was 0.322 µM.
For C=C(C)[C@@]12OC3(/C=C/C=C/CCCCC)O[C@@H]1[C@@H]1[C@@H]4O[C@]4(CO)[C@@H](O)[C@]4(O)C(=O)C(C)=C[C@H]4[C@@]1(O3)[C@H](C)[C@H]2OC(=O)c1ccccc1, the GI50 was 1.4 µM and the TGI was 2.94 µM.
With C=CC1CC12C(=O)C1OC2(C)C2C(=O)c3cc4ccccc4cc3C(=O)C12 (stereo unspecified) the GI50 was 27.5 µM and the TGI was over 100 µM.

The compounds below were run on OVCAR-5 ovarian (assay: NCI anticancer screen, dose series, 48 h).
For O=C(OCc1ccc2cccc(O)c2n1)N1CCN(C(=O)c2cc3cc(F)ccc3[nH]2)CC1, the GI50 was 1.7 µM and the TGI was 3.16 µM.
In the case of C=C(F)C(=O)N1CCN(c2nc(OC[C@@H]3CCCN3C)nc3c2CCN(c2cccc4cccc(Cl)c24)C3)C[C@@H]1CC#N, the GI50 is reported as 0.485 µM and the TGI is reported as 2.56 µM.
With Cc1c2cccnc2c(C)c2c1c1cc(CO)ccc1n2C the GI50 was 0.618 µM and the TGI was 8.78 µM.
CCCCN(CCCC)CC(C(=O)Nc1ccc([N+](=O)[O-])cc1[N+](=O)[O-])/C(C)=N\NC(=S)NN (stereo unspecified) gave a TGI of over 100 µM.
For S=C(N/N=C/c1ccco1)NC12CC3CC(CC(C3)C1)C2, the TGI was over 100 µM.
For CS(=O)(=O)N/N=C/CN1C(=O)c2ccccc2C1=O, the TGI was over 100 µM.
Ic1ccc(Nc2nc3nonc3nc2Nc2ccc(I)cc2)cc1 was tested, and the GI50 was 0.387 µM and the TGI was over 100 µM.
With CC(SC(C)C(=O)N/N=C/c1cccc(Cl)c1)C(=O)N/N=C\c1cccc(Cl)c1 (stereo unspecified) the GI50 was 17.4 µM and the TGI was 44.2 µM.
CCOC(=O)/C=C/C(C(=O)/C=C/c1ccc(OC2CCCCO2)c(OC)c1)=C(O)\C=C\c1ccc(OC2CCCCO2)c(OC)c1 (stereo unspecified) showed a GI50 of 7.81 µM and a TGI of 74.5 µM.
Work on O=C1c2ccccc2C2(Br)C(=O)c3ccccc3C12 (stereo unspecified) yielded a TGI of over 100 µM.
CCN1CCN(c2ccc(Nc3cc(N(C)C(=O)Nc4c(Cl)c(OC)cc(OC)c4Cl)ncn3)cc2)CC1 showed a GI50 of 3.7 µM and a TGI of 14.7 µM.
Compound CCOC(=O)Oc1c(OC)cc(C(=O)NC2CCc3cc(OC)c(OC)c(OC)c3-c3ccc(SC)c(=O)cc32)cc1OC (stereo unspecified) has a GI50 of over 70 µM and a TGI of over 70 µM.
In the case of CC(C)(C)OC(=O)NCC(=O)OCc1ccccc1, the TGI is reported as over 100 µM.
CC(C)(C)[SiH]12(OC(C(F)(F)F)(C(F)(F)F)c3ccccc31)OC(C(F)(F)F)(C(F)(F)F)c1ccccc12 was tested, and the TGI was 6.25 µM.
CSc1nc2c(nc(C)c(=O)n2C2OCC(OC(C)=O)C(OC(C)=O)C2OC(C)=O)c(=O)[nH]1 (stereo unspecified) was tested, and the TGI was over 100 µM.
With O=S(O)CCCCSSCC(O)C(O)CSSCCCCS(=O)O (stereo unspecified) the TGI was over 100 µM.
O=C1OC(c2ccccc2)=N/C1=C/C=C/c1ccco1 showed a TGI of over 100 µM.
With CC1OC2CC(=O)OC2C2=C1C(=O)c1c(O)cccc1C2=O (stereo unspecified) the GI50 was 0.204 µM and the TGI was 0.44 µM.
CCC[CH2][Sn]([CH2]CCC)([CH2]CCC)[O]C(=O)CC was tested, and the GI50 was 0.154 µM and the TGI was 0.387 µM.
Compound C=C(C)[C@@]12OC3(/C=C/C=C/CCCCC)O[C@@H]1[C@@H]1[C@@H]4O[C@]4(CO)[C@@H](O)[C@]4(O)C(=O)C(C)=C[C@H]4[C@@]1(O3)[C@H](C)[C@H]2OC(=O)c1ccccc1 has a GI50 of 4.43 µM and a TGI of 8.62 µM.
C/C(=C\CCc1ccoc1)CC/C=C(\C)CCCC1=CC(=O)OC1 showed a GI50 of 12.5 µM and a TGI of 68.9 µM.
With C=CC1CC12C(=O)C1OC2(C)C2C(=O)c3cc4ccccc4cc3C(=O)C12 (stereo unspecified) the GI50 was 61.2 µM and the TGI was over 100 µM.
